According to US6420121B1, “Prevention of cell migration initiation with CMV US28 receptor antagonists” (Oregon Health Sciences University, priority 1998, dated 2002):
Entries after “also recorded” stand apart in the source; their conditions may differ.

Experiments:
HCMV infected SMCs = test: HCMV-induced SMC migration assay (migration chamber); assay type: cell-based; details: for inhibition of HCMV-induced SMC migration: SMCs infected with HCMV, FIG. 7 and FIG. 9
Description: The present invention provides an assay for determining therapeutic activity of US28 receptor antagonists, comprising (a) obtaining and isolating smooth muscle cells into a first chamber of a migration device, wherein the first migration chamber comprises growth media chambers and is defined by a first side of a membrane and chamber walls, and wherein the migration device comprises a second chamber defined by the second side of the membrane and having an enclosed space; (b) infecting the smooth muscle cells with human cytomegalovirus (HCVM) containing a gene encoding the US28 receptor; (c) adding a candidate therapeutic agent to the first chamber; and (d) determining the amount of cellular migration into the second chamber, whereby inhibition of cellular migration of infected smooth muscle cells indicates therapeutic activity. Preferably, the smooth muscle cells are isolated from pulmonary arteries. Preferably, the membrane has a pore size of from about 2 to about 10 microns. Most preferably, the membrane pore size is about 3 microns. Preferably the amount of cellular migration is determined by an assay for counting the number of smooth muscle cells in the second chamber wherein the assay for counting the number of smooth muscle cells is selected from the group consisting of microscopic cell counting per unit area, radiolabeling the smooth muscle cells and counting radioactivity in the second chamber, attaching a fluorescent probe to the smooth muscle cells and measuring fluorescence within the second chamber, and combinations thereof.
SMCs are cultured in the upper chamber and infected with HCMV (preferably at or near MOI11). Only cells that are infected will migrate through a filter (preferably 3 micron) to the lower chamber. The cells in the lower chamber are counted by microscopy or labeled with a radioactive or fluorescent label.
The present invention provides an assay for determining therapeutic activity of US28 receptor antagonists, comprising (a) obtaining and isolating smooth muscle cells into a first chamber of a migration device, wherein the first migration chamber comprises growth media chambers and is defined by a first side of a membrane and chamber walls, and wherein the migration device comprises a second chamber defined by the second side of the membrane and having an enclosed space; (b) infecting the smooth muscle cells with human cytomegalovirus (HCVM) containing a gene encoding the US28 receptor; (c) adding a candidate therapeutic agent to the first chamber; and (d) determining the amount of cellular migration into the second chamber, whereby inhibition of cellular migration of infected smooth muscle cells indicates therapeutic activity. Preferably, the smooth muscle cells are isolated from pulmonary arteries. […]

[1] = test system: US28 transfected smooth muscle cell; test: US28 SMC migration with PTK pathway inhibitors (FIG. 15); assay type: cell-based

Row | Molecule | inhibition of HCMV-induced SMC migration (HCMV infected SMCs) | inhibition of US28 SMC migration [1] | other results
1 | O=C(O)P(=O)(O)O [foscarnet] | did not inhibit SMC migration; also recorded: did not inhibit migration of infected smooth muscle cells |  | 
2 | C[C@@H]1C[C@@H]([C@H](O)CC2CC(=O)NC(=O)C2)C(=O)[C@@H](C)C1 [cyclohexamide] | blocked |  | 
3 | PDGF |  |  | induction of cell migration in SMCs (HCMV infected SMCs; SMCs treated with PDGF, compared with HCMV infection, FIG. 7): did not cause cell migration in SMCs to nearly the extent as HCMV infection
4 | CO[C@H]1[C@@H](OC)C[C@H](C)[C@@H](OC)C2=CC(=O)C=C(NC(=O)/C(C)=C/C=C\[C@H](OC)[C@@H](OC(N)=O)/C(C)=C/[C@@H]1C)C2=O [herbimycin A, Herbimycin A] |  | effective in inhibiting US28 transfected smooth muscle cell migration | 
5 | Pertussis toxin |  | had no effect | 
6 | RANTES: C-C chemokine, US28 receptor ligand (protein, UniProt P13501 24-91, looked up) C-C motif chemokine 5: SPYSSDTTPCCFAYIARPLPRAHIKEYFYTSGKCSNPAVVFVTRKNRQVCANPEKKWVREYINSLEMS |  |  | SMC migration on addition of chemokine (HCMV infected SMCs; HCMV-GFP-infected SMCs, FIG. 12): increased SMC migration in a dose-dependent manner
